In a melting point compilation (Tetko et al.; mined from patent text by program, amines drawn as free bases though some values may be those of a salt):

Compared with `CCOc1ccc2[nH]ccc2c1`, `COC(=O)c1c[nH]c(-c2ccc(OC[C@@H](O)CNC(C)(C)C)cc2)n1` is higher in melting point: 144 to 146 °C for the first, 168 to 172 °C for the second.

First: Cc1cc(C)c(S(=O)(=O)N(C)C)cc1[N+](=O)[O-]
Second: Cc1cc(O)ccc1NC(=O)OC(C)(C)C
The melting point of the first is lower: 113 °C for the first, 143 to 144 °C for the second.

Compared with `COC(=O)c1ccc(C2(C(=O)Oc3ccc(C(=O)NO)cc3)CCCCC2)cc1`, `O=C(N[C@H]1CCc2ccc(O)cc2C1)[C@H](O)c1ccc(OCc2ccccc2)cc1` is higher in melting point: 129 to 131 °C for the first, 137 to 139 °C for the second.

Compared with `CCCC(NS(=O)(=O)NC(=O)OCc1ccccc1)C(=O)OC` (configuration not stated), `CC[C@H](CC(=O)NC(=O)OCc1ccccc1)Nc1ccc(C(F)(F)F)cc1` is higher in melting point: 76 to 78 °C for the first, 101 °C for the second.

First: N#CCCn1cnc([N+](=O)[O-])c1
Second: Clc1ncc(-c2ccco2)cn1
The melting point of the first is lower: 112 to 113 °C for the first, 134 to 136 °C for the second.

Compared with `COc1cccc(-c2nc3n(n2)Cc2cc(Cl)ccc2-3)c1`, `CNc1nc(-c2cccc(C=O)c2)c2cc(OC)c(OC)cc2n1` is lower in melting point: 229 to 230 °C for the first, 110 to 112 °C for the second.

Compared with `Cc1nc2c3c(ccn2c1C)C(=O)[C@H](OC(=O)C(C)(C)C)[C@@H](c1ccccc1)N3`, `Cc1nc2ccccc2n2cnc(C(=O)OC(C)(C)C)c12` is lower in melting point: 185 to 187 °C for the first, 176 to 177 °C for the second.

First: COc1cc(C)nc(NC(=O)NS(=O)(=O)c2ccccc2-n2cccn2)n1
Second: CC(=O)Nn1c(-c2ccccc2)nc2cc(C(F)(F)F)ccc21
The melting point of the first is higher: 200 to 204 °C for the first, 150 to 154 °C for the second.

`Cc1c(Cl)ccc(N)c1Cl` and `CCOC(=O)C(=O)CC(=O)c1cccc(Cl)c1Cl` cannot be ordered by melting point: 56 to 57.5 °C for the first, 57 to 58 °C for the second.

First: COc1ccc2c3c(cnc2c1)CCCC3O[Si](C)(C)C(C)(C)C (configuration not stated)
Second: COC(=O)c1c(C)c(OC)cc(O[Si](C)(C)C(C)(C)C)c1C=O
The melting point of the first is lower: 102 to 104 °C for the first, 125 to 131 °C for the second.

First: CCOC(=O)c1cc(CC)sc1Nc1cc(F)ccc1N
Second: COc1cc2c(Nc3cc(O)c(C)cc3F)ncnc2cc1O
The melting point of the first is lower: 100 to 101 °C for the first, 276 to 278 °C for the second.

First: COc1ccc(C)cc1NC(=O)Nc1ccc(C2CCN(C(=O)Nc3ncccc3CO)CC2)cc1
Second: O=C(Nc1ccc(N2CCN(C(=O)Nc3ccc(OCCO)cc3C(F)(F)F)CC2)cc1)Nc1cccc2c1OCCO2
The melting point of the first is lower: 105 to 110 °C for the first, 127 to 129 °C for the second.

First: COc1cc2nc(N3CCN(C(=O)C4CCc5ccccc5O4)CC3)nc(N)c2cc1OC (configuration not stated)
Second: COc1ccccc1-c1cc(N2CCN(Cc3ccc(C)cc3)CC2)n2ccc(=O)ccc12
The melting point of the first is lower: 165 to 167 °C for the first, 186 °C for the second.

Compared with `COc1ccc(CCN(C)CCC2CN(C)C(=S)c3cccnc3O2)cc1` (configuration not stated), `O=c1[nH]c(Cc2ccc(OCCc3coc(-c4ccccc4)n3)cc2)no1` is higher in melting point: 75 to 78 °C for the first, 154 to 158 °C for the second.

First: Fc1cccc(CSc2nnc(-c3ccn4ncnc4c3)o2)c1
Second: O=C(O)CCc1c(C(=O)O)[nH]c2cc(-c3ccccc3)ccc12
The melting point of the first is lower: 153 to 154 °C for the first, 238 to 239 °C for the second.

First: N#Cc1ccc(N2CCC(O)CC2)c2ccccc12
Second: Nc1nc2ccccc2c2c1nc(CO)n2CC1CCOCC1
The melting point of the first is lower: 126 to 127 °C for the first, 239 to 241 °C for the second.

First: COCCNC(N)=Nc1nc(-c2cccc(CNC(=O)CN)c2)cs1
Second: COc1ccc(C(=O)c2sc(Nc3ccc(OCc4ccccc4)cc3)nc2N)cc1
The melting point of the first is lower: 66 to 67 °C for the first, 222 to 224 °C for the second.

First: CCCCCCCCCCCCCCCCCCOC(=O)CCCCCCCCCCCCCCCCC
Second: CCCCCCCCCCC[C@H](C[C@H](O)[C@H](CCCCCC)C(=O)O)OCc1ccccc1
The melting point of the first is lower: 47 to 55 °C for the first, 57 to 60 °C for the second.

Compared with `Nc1ncnc2ncn([C@H]3C=C[C@@H](O)C3)c12` (racemic), `CC1CCCC(C(=O)c2[nH]c3cc(Cl)ccc3c2N)C1` (configuration not stated) is lower in melting point: 195 to 197 °C for the first, 140 to 142 °C for the second.

Compared with `CCCCCCC(=N)NC(=S)Nc1ccc(OC)cc1`, `CN1CCN(C(c2ccc(Cl)cc2)c2cccc(C=CC(=O)O)c2)CC1` (configuration not stated) is higher in melting point: 70 to 72 °C for the first, 131 to 141 °C for the second.

Going from `CC(=O)N(C1=C(Cl)C(=O)c2c(cnn2C)C1=O)C1CC1` to `Cc1c(F)c(F)c(C(O)C#N)c(F)c1F` (configuration not stated), the melting point falls from 171 °C to 124 °C.
